pIC50, pKi: −log10 of the molar value. Where “and” joins values, the source holds several entries; their conditions need not be identical. Equal values may be shown once.
Biological target: T1, Adenosine receptor A1 (Rattus norvegicus, UniProt P25099)
T1 sequence (P25099 whole entry): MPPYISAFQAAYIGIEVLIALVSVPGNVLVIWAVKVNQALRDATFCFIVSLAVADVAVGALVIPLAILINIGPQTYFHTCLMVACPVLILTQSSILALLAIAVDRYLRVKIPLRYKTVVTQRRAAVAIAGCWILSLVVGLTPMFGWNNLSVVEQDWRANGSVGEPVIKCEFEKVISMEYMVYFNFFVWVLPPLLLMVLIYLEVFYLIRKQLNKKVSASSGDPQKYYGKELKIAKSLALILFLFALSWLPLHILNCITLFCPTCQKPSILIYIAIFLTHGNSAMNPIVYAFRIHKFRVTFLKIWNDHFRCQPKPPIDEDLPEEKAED
Assay: Evaluated for binding affinity against Adenosine A1 receptor

pIC50 | pKi | Compound
9.00 |  | OC[C@H]1OC(n2cnc3c(Nc4cccc(F)c4)ncnc32)[C@H](O)[C@@H]1O (stereo partly specified)
7.57 |  | Cc1cccc(Nc2ncnc3c2ncn3C2O[C@H](CO)[C@@H](O)[C@H]2O)c1 (stereo partly specified)
 | 8.27 | Cc1cccc(-c2nc3c([nH]2)c(=O)n(C)c(=O)n3C)c1
 | 7.41 | CCCn1c(=O)c2[nH]c(CC3CCCCC3)nc2n(CCC)c1=O
 | 8.34 | CCCn1c(=O)c2nc(-c3ccc(OC)cc3)[nH]c2n(CCC)c1=O
7.40 |  | OC[C@H]1OC(n2cnc3c(NCC4CCCCC4)ncnc32)[C@H](O)[C@@H]1O (stereo partly specified)
 | 8.62 | Cn1c(=O)c2nc(-c3cccc(F)c3)[nH]c2n(C)c1=O
8.92 |  | CCCc1ccccc1Nc1ncnc2c1ncn2C1O[C@H](CO)[C@@H](O)[C@H]1O (stereo partly specified)
8.66 |  | OC[C@H]1OC(n2cnc3c(Nc4ccc(Cl)cc4)ncnc32)[C@H](O)[C@@H]1O (stereo partly specified)
7.28 |  | CCCc1ccccc1Nc1ncnc2c1ncn2C1OC(CO)[C@@H](O)[C@H]1O (single isomer, unassigned)
 | 6.05 | CCCn1c(=O)c2nc(Cc3ccccc3)[nH]c2n(CCC)c1=O
8.48 |  | OC[C@H]1O[C@@H](n2cnc3c(Nc4ccccc4)ncnc32)[C@H](O)[C@@H]1O [N6-PHENYLADENOSINE]
 | 6.72 | COc1ccccc1-c1nc2c([nH]1)c(=O)n(C)c(=O)n2C
 | 9.19 | Cn1c(=O)c2[nH]c(-c3ccc(Cl)cc3)nc2n(C)c1=O
8.40 |  | OC[C@H]1OC(n2cnc3c(Nc4ccccc4F)ncnc32)[C@H](O)[C@@H]1O (stereo partly specified)
 | 8.74 | Cn1c(=O)c2[nH]c(-c3ccc(F)cc3)nc2n(C)c1=O
8.70 |  | OC[C@H]1OC(n2cnc3c(Nc4ccc(F)cc4)ncnc32)[C@H](O)[C@@H]1O (stereo partly specified)
 | 9.29 | Cc1ccc(-c2nc3c([nH]2)c(=O)n(C)c(=O)n3C)cc1
8.68 |  | OC[C@H]1O[C@@H](n2cnc3c(NC4CC4)ncnc32)[C@H](O)[C@@H]1O
8.05 |  | Cc1ccccc1Nc1ncnc2c1ncn2C1O[C@H](CO)[C@@H](O)[C@H]1O (stereo partly specified)
8.05 and 8.34 |  | COc1ccc(Nc2ncnc3c2ncn3[C@@H]2O[C@H](CO)[C@@H](O)[C@H]2O)cc1
7.07 |  | COc1ccccc1Nc1ncnc2c1ncn2C1O[C@H](CO)[C@@H](O)[C@H]1O (stereo partly specified)
8.31 |  | Cc1ccc(Nc2ncnc3c2ncn3C2O[C@H](CO)[C@@H](O)[C@H]2O)cc1 (stereo partly specified)
7.33 |  | COc1cccc(Nc2ncnc3c2ncn3C2O[C@H](CO)[C@@H](O)[C@H]2O)c1 (stereo partly specified)
 | 8.17 | Cn1c(=O)c2[nH]c(-c3ccccc3F)nc2n(C)c1=O
 | 7.96 | CCCn1c(=O)c2[nH]c(-c3ccccc3)nc2n(CCC)c1=O

From ChEMBL document CHEMBL1126162, “A steric and electrostatic comparison of three models for the agonist/antagonist binding site on the adenosine A1 receptor” (J Med Chem, 1992)
